Measured values: US12043612B2, “Methods of manufacturing a bifunctional compound, ultrapure forms of the bifunctional compound, and dosage forms comprising the same” (Arvinas Operations, Inc., priority 2020, dated 2024)
In brackets after ≈: the same amount, converted by molar mass. Where two headings read alike, the source gives them in different places.

Key:
[1] = pH-Solubility Profile in buffers and simulated intestinal fluids; type: physicochemical; conditions: read-out: pH-Solubility Profile, Concentration
Method: This batch was prepared for use in the 28-day good laboratory practice (GLP) toxicology studies using the same synthetic scheme and processing employed in preparation of active pharmaceutical ingredient (API) to be used in the clinical drug product.

MDCK cells = test: In vitro permeability in MDCK cells; type: in vitro ADME
[2] = Glass transition and recrystallization temperature of amorphous solids; type: physicochemical
Method: Thus, while crystals of Compound A are quite stable, there is a significant barrier to transforming to a crystalline state from an amorphous form. Indeed, a ramped temperature increase of a partially-crystalline sample does eventually lead to a recrystallization event, but not until a temperature of 200-220° C. is achieved. […] As discussed below, this robust resistance to crystallization is preserved even in the presence of water.
The amorphous form of pure Compound A is robust with a high Tg and even higher recrystallization temperature. The glass transition temperature does decrease under the plasticizing conditions of high humidity. However, the value is still well above the commonly applied 40-50° C. difference between Tg and any temperature the clinical presentation will encounter.

[3] = Solvent screen for dissolution of crystalline Compound A; type: physicochemical
Method: A screen was conducted to determine the optimum solvent for use purifying Compound A and for dissolution of crystalline Compound A prior to spray drying.

[4] = Oral bioavailability and hepatic clearance with colloid-forming, precipitation-resistant solutions; type: in vivo
[5] = Membrane flux experiment (donor/receiver compartments, SIF bile salts)
Method: A membrane flux experiment was conducted in which a fixed amount of compound was introduced into the donor compartment at various concentrations of the SIF bile salts, and appearance of drug was monitored on the receiver side.

[6] = Rat pharmacokinetic studies with solutions and spray-dried dispersions; conditions: rats; solutions containing solubilizers and precipitation inhibitors

`N#Cc1ccc(O[C@H]2CC[C@H](NC(=O)c3ccc(N4CCC(CN5CCN(c6cc7c(cc6F)C(=O)N(C6CCC(=O)NC6=O)C7=O)CC5)CC4)nn3)CC2)cc1Cl` (stereo partly drawn) [Compound A, N-[(1r,4r)-4-(3-chloro-4-cyanophenoxy)cyclohexyl]-6-[4-({4-[2-(2,6-dioxopiperidin-3-yl)-6-fluoro-1,3-dioxo-2,3-dihydro-1H-isoindol-5-yl]piperazin-1-yl}methyl)piperidin-1-yl]pyridazine-3-carboxamide] gave a solubility ([1]; aqueous buffer, pH 3 200 mM citrate buffer, pH of solution 3.0) of 15 µg/mL (≈ 18.5 µM), a solubility ([1]; aqueous buffer, pH 5 200 mM citrate buffer, pH of solution 5.0) of 0.5 µg/mL (≈ 0.616 µM) and a solubility ([1]; aqueous buffer, pH 6.5 200 mM citrate buffer, pH of solution 6.5) of 0.3 µg/mL (≈ 0.369 µM). It also gave a solubility ([1]; pH 5, fessif, Fed state simulated intestinal fluid, pH of solution 5.0) of 22 µg/mL (≈ 27.1 µM), a solubility ([1]; pH 6.5, fassif, Fasted state simulated intestinal fluid, pH of solution 6.5) of 1 µg/mL (≈ 1.23 µM) and a solubility ([1]; simulated gastric fluid, pH 1.2 HCl (aq), pH of solution 1.2) of 397 µg/mL (≈ 489 µM). For the same molecule, the “in vitro permeability in MDCK cells” value (MDCK cells) was “low”, the “glass transition temperature (Tg)” value [2] was 146 °C and the “temperature of recrystallization event” value ([2]; ramped temperature increase of a partially-crystalline sample) was 200-220 °C. For the same molecule, the Dissolution ([3]; DCM:Acetone, 53:47% wt., Solids 0.82 wt %, RT) was “Not dissolved”, the Dissolution ([3]; DCM:Ethanol, 92:8% wt., Solids 2.26 wt %, RT) was “Dissolved” and the Dissolution ([3]; DCM:Methanol, 70:30% wt., Solids 3.2 wt %, RT) was “Turbid solution”. The Dissolution ([3]; DCM:Methanol, 80:20% wt., Solids 3.4 wt %, RT) was “Dissolved”, the Dissolution ([3]; DCM:Methanol, 90:10% wt., Solids 5 wt %, RT) was “Dissolved” and the Dissolution ([3]; DCM:Methanol, 90:10% wt., Solids 6.6 wt %, Temperature 30) was “Dissolved”. For the same molecule, the Dissolution ([3]; DCM:Methanol, 90:10% wt., Solids 8.1 wt %, Temperature 35) was “Dissolved”, the Dissolution ([3]; DCM:Methanol, 95:5 wt. %., Solids 4.2 wt %, RT) was “Dissolved” and the Dissolution ([3]; DCM, Solids 0.6 wt %, RT) was “Not dissolved”. The Dissolution ([3]; Methanol, Solids 2.8 wt %, RT) was “Not dissolved”, the Dissolution ([3]; THF, Solids 0.7 wt %, RT) was “Not dissolved” and the oral bioavailability ([4]; colloid-forming, precipitation-resistant solutions administered) was “modest”. For the same molecule, the hepatic clearance ([4]; in vivo) was “low”, the “Flux (μg-min^−1-cm^−2)” value ([5]; SIF 0 mg/mL) was 0.02 μg-min^−1-cm^−2 and the “Flux (μg-min^−1-cm^−2)” value ([5]; SIF 5 mg/mL) was 0.09 μg-min^−1-cm^−2. The “Flux (μg-min^−1-cm^−2)” value ([5]; SIF 10 mg/mL) was 0.14 μg-min^−1-cm^−2, the “Flux (μg-min^−1-cm^−2)” value ([5]; SIF 20 mg/mL) was 0.20 μg-min^−1-cm^−2 and the exposure versus dose [6] was “Dose-linear exposure escalation”.
